According to patent US8987195B2 (priority 2012, dated 2015):
pEC50: −log10 of the molar value. Like-named read-outs stand apart in the source and are kept apart here.

Experiments:
[1] = test system: HCV genotype 1b replicon; assay: HCV replicon assay, genotype 1b replicon EC50; assay type: cell-based, Hepatitis C virus; conditions: Hepatitis C virus, genotype 1b replicon, read-out: EC50 [gt-1b]
Outline: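 Assay format: compound titration on stable replicon cells, no G418 during treatment, 24 to 48 hours. Lysates were assayed for replicon RNA (hybridization/protection or TaqMan) or luciferase; EC50 fitted to four parameters against DMSO.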

[2] = target: HCV NS3/4A protease genotype 1b (Hepatitis C virus genotype 1b, UniProt P26663); assay: HCV NS3/4A protease time-resolved fluorescence (TRF) assay, Ki against genotype 1b; assay type: biochemical; conditions: IC50 [gt-1b] (nM), NS3/4A genotype 1b, enzyme 0.2 nM
HCV NS3/4A protease genotype 1b, sequence (P26663 1027-1657): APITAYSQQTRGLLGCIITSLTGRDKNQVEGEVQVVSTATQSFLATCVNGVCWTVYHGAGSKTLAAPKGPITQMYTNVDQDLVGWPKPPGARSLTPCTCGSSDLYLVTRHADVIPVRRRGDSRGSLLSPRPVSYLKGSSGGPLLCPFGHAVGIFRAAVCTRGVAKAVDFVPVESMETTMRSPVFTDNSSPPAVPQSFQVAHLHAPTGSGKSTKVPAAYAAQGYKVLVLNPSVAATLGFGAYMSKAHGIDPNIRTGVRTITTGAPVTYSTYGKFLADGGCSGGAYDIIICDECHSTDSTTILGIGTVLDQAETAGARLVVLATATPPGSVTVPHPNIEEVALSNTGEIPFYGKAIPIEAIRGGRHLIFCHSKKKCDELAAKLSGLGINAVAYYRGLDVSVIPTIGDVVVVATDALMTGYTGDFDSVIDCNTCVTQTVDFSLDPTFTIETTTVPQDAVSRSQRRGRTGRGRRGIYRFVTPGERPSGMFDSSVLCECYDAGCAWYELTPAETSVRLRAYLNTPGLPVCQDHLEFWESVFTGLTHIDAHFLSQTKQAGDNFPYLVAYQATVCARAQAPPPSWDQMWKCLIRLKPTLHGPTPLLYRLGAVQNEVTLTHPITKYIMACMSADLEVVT
HCV NS3/4A protease genotype 1b, sequence (P26663 1658-1711): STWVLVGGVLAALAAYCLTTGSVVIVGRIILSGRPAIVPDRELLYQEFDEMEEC
Outline: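 Ki values come from IC50 fits corrected for substrate concentration and KM. The time-resolved fluorescence protease reaction used 25 nM peptide substrate, 2.5 h, room temperature, pH 7.5 HEPES buffer, after 30 min enzyme–inhibitor preincubation.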

SMILES	pEC50 ([1]; K+ salt)	IC50 ([2]; K+ salt) [nM]	pEC50 [1]	IC50 [2] [nM]	pEC50 ([1]; GETYPE1B|GT1B)
CC1(S(=O)(=O)NC(=O)[C@@]23C[C@H]2/C=C\CCCCC[C@H](NC(=O)OC2CCCC2)C(=O)N2C[C@@]4(CCc5c(c(C(F)(F)F)nc6ccccc56)O4)C[C@H]2C(=O)N3)CC1 [Example 148, cyclopentyl [(2R,6S,12Z,13aS,14aR,16aS)-14a-{[(1-methylcyclopropyl)sulfonyl]carbamoyl}-5,16-dioxo-5′-(trifluoromethyl)-1,1′,2′,5,6,7,8,9,10,11,13a,14,14a,15,16,16a-hexadecahydrospiro[cyclopropa[e]pyrrolo[1,2-a][1,4]diazacyclopentadecine-2,3′-pyrano[2,3-c]quinolin]-6-yl]carbamate]	9.71	0.011	–	–	–
Cc1nc2ccccc2c2c1O[C@@]1(C[C@H]3C(=O)N[C@]4(C(=O)NS(=O)(=O)C5(C)CC5)C[C@H]4/C=C\CCCCC[C@H](NC(=O)OC4CCCC4)C(=O)N3C1)CC2(F)F [Example 149, cyclopentyl [(2S,6S,12Z,13aS,14aR,16aS)-1′,1′-difluoro-5′-methyl-14a-{[(1-methylcyclopropyl)sulfonyl]carbamoyl}-5,16-dioxo-1,1′,2′,5,6,7,8,9,10,11,13a,14,14a,15,16,16a-hexadecahydrospiro[cyclopropa[e]pyrrolo[1,2-a][1,4]diazacyclopentadecine-2,3′-pyrano[2,3-c]quinolin]-6-yl]carbamate]	–	–	9.71	0.022	–
CC1(S(=O)(=O)NC(=O)[C@@]23C[C@H]2/C=C\CCCCC[C@H](NC(=O)OC2CCCC2)C(=O)N2C[C@@]4(CCc5c(c(C6CC6)nc6c(F)cccc56)O4)C[C@H]2C(=O)N3)CC1 [Example 150, cyclopentyl [(2R,6S,12Z,13aS,14aR,16aS)-5′-cyclopropyl-7′-fluoro-14a-{[(1-methylcyclopropyl)sulfonyl]carbamoyl}-5,16-dioxo-1,1′,2′,5,6,7,8,9,10,11,13a,14,14a,15,16,16a-hexadecahydrospiro[cyclopropa[e]pyrrolo[1,2-a][1,4]diazacyclopentadecine-2,3′-pyrano[2,3-c]quinolin]-6-yl]carbamate]	–	–	9.71	0.013	–
CC(C)COC(=O)N[C@H]1CCCCC/C=C\[C@@H]2C[C@@]2(C(=O)NS(=O)(=O)C2(C)CC2)NC(=O)[C@@H]2C[C@]3(CCc4c(c(C5CC5)nc5c(F)cccc45)O3)CN2C1=O [Example 151, 2-methylpropyl [(2R,6S,12Z,13aS,14aR,16aS)-5′-cyclopropyl-7′-fluoro-14a-{[(1-methylcyclopropyl)sulfonyl]carbamoyl}-5,16-dioxo-1,1′,2′,5,6,7,8,9,10,11,13a,14,14a,15,16,16a-hexadecahydrospiro[cyclopropa[e]pyrrolo[1,2-a][1,4]diazacyclopentadecine-2,3′-pyrano[2,3-c]quinolin]-6-yl]carbamate]	8.75	0.014	–	–	–
COc1ccc2nc(C3CC3)c3c(c2c1)CC[C@]1(C[C@H]2C(=O)N[C@]4(C(=O)NS(=O)(=O)C5(C)CC5)C[C@H]4/C=C\CCCCC[C@H](NC(=O)OC4(C)CCC4)C(=O)N2C1)O3 [Example 152, 1-methylcyclobutyl [(2R,6S,12Z,13aS,14aR,16aS)-5′-cyclopropyl-9′-methoxy-14a-{[(1-methylcyclopropyl)sulfonyl]carbamoyl}-5,16-dioxo-1,1′,2′,5,6,7,8,9,10,11,13a,14,14a,15,16,16a-hexadecahydrospiro[cyclopropa[e]pyrrolo[1,2-a][1,4]diazacyclopentadecine-2,3′-pyrano[2,3-c]quinolin]-6-yl]carbamate]	9.14	0.014	–	–	–
COc1ccc2nc(C3CC3)c3c(c2c1)CC[C@]1(C[C@H]2C(=O)N[C@]4(C(=O)NS(=O)(=O)C5(C)CC5)C[C@H]4/C=C\CCCCC[C@H](NC(=O)OCC(C)(C)C)C(=O)N2C1)O3 [Example 153, 2,2-dimethylpropyl [(2R,6S,12Z,13aS,14aR,16aS)-5′-cyclopropyl-9′-methoxy-14a-{[(1-methylcyclopropyl)sulfonyl]carbamoyl}-5,16-dioxo-1,1′,2′,5,6,7,8,9,10,11,13a,14,14a,15,16,16a-hexadecahydrospiro[cyclopropa[e]pyrrolo[1,2-a][1,4]diazacyclopentadecine-2,3′-pyrano[2,3-c]quinolin]-6-yl]carbamate]	8.73	0.014	–	–	–
COc1ccc2nc(C(C)C)c3c(c2c1)CC[C@]1(C[C@H]2C(=O)N[C@]4(C(=O)NS(=O)(=O)C5(C)CC5)C[C@H]4/C=C\CCCCC[C@H](NC(=O)OCC(C)C)C(=O)N2C1)O3 [Example 154, 2-methylpropyl [(2R,6S,12Z,13aS,14aR,16aS)-9′-methoxy-14a-{[(1-methylcyclopropyl)sulfonyl]carbamoyl}-5,16-dioxo-5′-(propan-2-yl)-1,1′,2′,5,6,7,8,9,10,11,13a,14,14a,15,16,16a-hexadecahydrospiro[cyclopropa[e]pyrrolo[1,2-a][1,4]diazacyclopentadecine-2,3′-pyrano[2,3-c]quinolin]-6-yl]carbamate]	–	–	9.00	0.014	–
COc1ccc2nc(C(C)C)c3c(c2c1)CC[C@]1(C[C@H]2C(=O)N[C@]4(C(=O)NS(=O)(=O)C5(C)CC5)C[C@H]4/C=C\CCCCC[C@H](NC(=O)OC4CCCC4)C(=O)N2C1)O3 [Example 155, cyclopentyl [(2R,6S,12Z,13aS,14aR,16aS)-9′-methoxy-14a-{[(1-methylcyclopropyl)sulfonyl]carbamoyl}-5,16-dioxo-5′-(propan-2-yl)-1,1′,2′,5,6,7,8,9,10,11,13a,14,14a,15,16,16a-hexadecahydrospiro[cyclopropa[e]pyrrolo[1,2-a][1,4]diazacyclopentadecine-2,3′-pyrano[2,3-c]quinolin]-6-yl]carbamate]	–	–	8.93	0.015	–
CC(C)OC(=O)N[C@H]1CCCCC/C=C\[C@@H]2C[C@@]2(C(=O)NS(=O)(=O)C2(C)CC2)NC(=O)[C@@H]2C[C@]3(CCc4c(c(C(F)(F)F)nc5ccccc45)O3)CN2C1=O [Example 157, propan-2-yl [(2R,6S,12Z,13aS,14aR,16aS)-14a-{[(1-methylcyclopropyl)sulfonyl]carbamoyl}-5,16-dioxo-5′-(trifluoromethyl)-1,1′,2′,5,6,7,8,9,10,11,13a,14,14a,15,16,16a-hexadecahydrospiro[cyclopropa[e]pyrrolo[1,2-a][1,4]diazacyclopentadecine-2,3′-pyrano[2,3-c]quinolin]-6-yl]carbamate]	–	–	8.77	0.02	–
CC(C)C1(OC(=O)N[C@H]2CCCCC/C=C\[C@@H]3C[C@@]3(C(=O)NS(=O)(=O)C3(C)CC3)NC(=O)[C@@H]3C[C@]4(CCc5c(c(C(F)(F)F)nc6ccccc56)O4)CN3C2=O)CC1 [Example 158, 1-(propan-2-yl)cyclopropyl [(2R,6S,12Z,13aS,14aR,16aS)-14a-{[(1-methylcyclopropyl)sulfonyl]carbamoyl}-5,16-dioxo-5′-(trifluoromethyl)-1,1′,2′,5,6,7,8,9,10,11,13a,14,14a,15,16,16a-hexadecahydrospiro[cyclopropa[e]pyrrolo[1,2-a][1,4]diazacyclopentadecine-2,3′-pyrano[2,3-c]quinolin]-6-yl]carbamate]	–	–	8.93	0.02	–
CC1(OC(=O)N[C@H]2CCCCC/C=C\[C@@H]3C[C@@]3(C(=O)NS(=O)(=O)C3(C)CC3)NC(=O)[C@@H]3C[C@]4(CCc5c(c(C(F)(F)F)nc6ccccc56)O4)CN3C2=O)CC1 [Example 159, 1-methylcyclopropyl [(2R,6S,12Z,13aS,14aR,16aS)-14a-{[(1-methylcyclopropyl)sulfonyl]carbamoyl}-5,16-dioxo-5′-(trifluoromethyl)-1,1′,2′,5,6,7,8,9,10,11,13a,14,14a,15,16,16a-hexadecahydrospiro[cyclopropa[e]pyrrolo[1,2-a][1,4]diazacyclopentadecine-2,3′-pyrano[2,3-c]quinolin]-6-yl]carbamate]	–	–	8.93	0.013	–
CC(C)COC(=O)N[C@H]1CCCCC/C=C\[C@@H]2C[C@@]2(C(=O)NS(=O)(=O)C2(C)CC2)NC(=O)[C@@H]2C[C@]3(CCc4c(c(C(F)(F)F)nc5ccccc45)O3)CN2C1=O [Example 160, 2-methylpropyl [(2R,6S,12Z,13aS,14aR,16aS)-14a-{[(1-methylcyclopropyl)sulfonyl]carbamoyl}-5,16-dioxo-5′-(trifluoromethyl)-1,1′,2′,5,6,7,8,9,10,11,13a,14,14a,15,16,16a-hexadecahydrospiro[cyclopropa[e]pyrrolo[1,2-a][1,4]diazacyclopentadecine-2,3′-pyrano[2,3-c]quinolin]-6-yl]carbamate]	8.74	0.026	–	–	–
Cc1nc2ccccc2c2c1O[C@]1(CC2)C[C@H]2C(=O)N[C@]3(C(=O)CS(=O)(=O)C4(C)CC4)C[C@H]3/C=C\CCCCC[C@H](NCCC3CCCC3)C(=O)N2C1 [Example 161]	–	–	–	0.138	8.52
Cc1nc2ccccc2c2c1O[C@]1(CC2)C[C@H]2C(=O)N[C@]3(C(=O)NS(=O)(=O)C4(C)CC4)C[C@H]3/C=C\CCCCC[C@H](N(CCC3CCCC3)CCC3CCCC3)C(=O)N2C1 [Example 162, (2R,6S,12Z,13aS,14aR,16aS)-6-[bis(2-cyclopentylethyl)amino]-5′-methyl-N-[(1-methylcyclopropyl)sulfonyl]-5,16-dioxo-1,1′,2′,6,7,8,9,10,11,13a,14,15,16,16a-tetradecahydrospiro[cyclopropa[e]pyrrolo[1,2-a][1,4]diazacyclopentadecine-2,3′-pyrano[2,3-c]quinoline]-14a(5H)-carboxamide]	–	–	7.14	6.38	–
